Measurements from patent publication US20260137819A1 (Radionetics Oncology, Inc., priority 2022, published 2026).
Starred links: 1 amine or outer side, 2 acyl side, 3 side chain; linkers in the order of their positions; H or OH if unused. Non-standard residues stand in square brackets, D forms with d. Residues, ends and D or L forms follow the SMILES beside them. Groups on a side chain read outwards from the residue. *: point of attachment. X1 = COc1cc2c(cc1-c1cccc(N*)c1)-c1c(c(C(=O)N3CCOCC3(C)C)nn1-c1cc(Cl)cc(Cl)c1)CO2; DOTA = O=C(O)CN1CCN(CC(=O)O)CCN(CC(=O)*)CCN(CC(=O)O)CC1; Suc = O=C(CCC(=O)[*:2])[*:1]

Biological target: T1, human follicle-stimulating hormone receptor (FSHR) (Homo sapiens, UniProt P23945)
T1 construct: host or cells: CHO-K1
T1 sequence (P23945 18-695): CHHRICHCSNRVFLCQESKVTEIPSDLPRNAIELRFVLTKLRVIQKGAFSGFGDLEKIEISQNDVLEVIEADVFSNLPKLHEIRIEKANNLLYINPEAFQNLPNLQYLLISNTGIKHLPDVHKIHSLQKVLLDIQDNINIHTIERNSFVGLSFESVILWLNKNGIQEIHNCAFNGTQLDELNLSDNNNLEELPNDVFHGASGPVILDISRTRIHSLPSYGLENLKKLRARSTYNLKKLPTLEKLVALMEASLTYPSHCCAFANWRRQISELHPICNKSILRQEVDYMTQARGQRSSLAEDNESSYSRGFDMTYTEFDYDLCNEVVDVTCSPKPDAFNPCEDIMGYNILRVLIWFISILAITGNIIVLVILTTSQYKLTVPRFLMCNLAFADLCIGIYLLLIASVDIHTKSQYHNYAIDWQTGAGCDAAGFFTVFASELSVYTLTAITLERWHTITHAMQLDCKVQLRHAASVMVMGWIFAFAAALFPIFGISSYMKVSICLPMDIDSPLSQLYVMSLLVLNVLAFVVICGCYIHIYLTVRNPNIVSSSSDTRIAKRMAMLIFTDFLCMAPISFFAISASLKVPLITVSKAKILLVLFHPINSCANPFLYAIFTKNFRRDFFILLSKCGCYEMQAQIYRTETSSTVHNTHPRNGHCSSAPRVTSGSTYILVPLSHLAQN
Assay: Measurement of agonist cAMP production by activation of human FSHR
Type: cell-based
Settings: CHO-K1 human FSHR cells, 30 minutes at 37° C., HTRF cAMP kit; read-out: hFSHR Agonist cAMP EC50
Summary of the method: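 cAMP output was measured by HTRF after 30 min at 37 °C agonist exposure (0–10,000 nM final) in stably FSHR-transfected CHO-K1 cells. Lysate cAMP was read off a standard curve and fitted to obtain half-maximal EC50.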

EC50 [nM]	SMILES
10 to 100	COc1cc2c(cc1-c1cccc(NC(=O)CCC(=O)NCCCC[C@@H](NC(=O)[C@@H](CCC(=O)O)NC(=O)[C@@H](CCCNC(=N)N)NC(=O)[C@@H](C)NC(=O)CN3CCN(CC(=O)O)CCN(CC(=O)O)CCN(CC(=O)O)CC3)C(=O)N[C@H](CCCNC(=N)N)C(=O)N[C@H](CCC(=O)O)C(=O)N[C@H](C)C(N)=O)c1)-c1c(c(C(=O)N3CCOCC3(C)C)nn1-c1cc(Cl)cc(Cl)c1)CO2 [Compound 83, 2,2′,2″-(10-((4R,7R,10R,13R,16R,19R,22R)-23-amino-10,19-bis(2carboxyethyl)-13-(4-(4-((3-(1-(3,5-dichlorophenyl)-3-(3,3-dimethylmorpholine-4-carbonyl)-7-methoxy-1,4-dihydrochromeno|4,3-c|pyrazol-8-yl)phenyl)amino)-4-oxobutanamido)butyl)-7,16-bis(3-guanidinopropyl)-4,22-dimethyl-2,5,8,11,14,17,20,23-octaoxo-3,6,9,12,15,18,21-heptaazatricosyl)-1,4,7,10-tetraazacyclododecane-1,4,7-triyl)triacetic acid] ({DOTA}-[dA][dR][dE][dK]([Suc-X1])[dR][dE][dA]-NH2)
10 to 100	COc1cc2c(cc1-c1cccc(NC(=O)CCC(=O)NCCCC[C@@H](NC(=O)[C@@H](CCC(=O)O)NC(=O)[C@@H](CCCNC(=N)N)NC(=O)[C@@H](CCC(=O)O)NC(=O)[C@@H](CCCNC(=N)N)NC(=O)[C@@H](C)NC(=O)CN3CCN(CC(=O)O)CCN(CC(=O)O)CCN(CC(=O)O)CC3)C(=O)N[C@H](C)C(N)=O)c1)-c1c(c(C(=O)N3CCOCC3(C)C)nn1-c1cc(Cl)cc(Cl)c1)CO2 [Compound 84, 2,2′,2″-(10-((4R,7R,10R,13R,16R,19R)-19-(((R)-1-amino-1-oxopropan-2yl)carbamoyl)-10,16-bis(2-carboxyethyl)-28-((3-(1-(3,5-dichlorophenyl)-3-(3,3-dimethylmorpholine-4-carbonyl)-7-methoxy-1,4-dihydrochromeno|4,3-clpyrazol-8-yl)phenyl)amino)-7,13-bis(3-guanidinopropyl)-4-methyl-2,5,8,11,14,17,25,28-octaoxo-3,6,9,12,15,18,24-heptaazaoctacosyl)-1,4,7,10-tetraazacyclododecane-1,4,7-triyl)triacetic acid] ({DOTA}-[dA][dR][dE][dR][dE][dK]([Suc-X1])[dA]-NH2)
10 to 100	COc1cc2c(cc1-c1cccc(NC(=O)CCC(=O)NCCCC[C@@H](NC(=O)[C@@H](CO)NC(=O)[C@@H](CC(N)=O)NC(=O)[C@@H](CO)NC(=O)[C@@H](CC(N)=O)NC(=O)[C@@H](C)NC(=O)CN3CCN(CC(=O)O)CCN(CC(=O)O)CCN(CC(=O)O)CC3)C(=O)N[C@H](C)C(N)=O)c1)-c1c(c(C(=O)N3CCOCC3(C)C)nn1-c1cc(Cl)cc(Cl)c1)CO2 [Compound 85] ({DOTA}-[dA][dN][dS][dN][dS][dK]([Suc-X1])[dA]-NH2)
10 to 100	COc1cc2c(cc1-c1cccc(NC(=O)CCC(=O)NCCCC[C@@H](NC(=O)[C@@H](C)NC(=O)[C@@H](CCC(=O)O)NC(=O)[C@@H](C)NC(=O)CN3CCN(CC(=O)O)CCN(CC(=O)O)CCN(CC(=O)O)CC3)C(=O)N[C@H](C)C(=O)N[C@H](CCC(=O)O)C(=O)N[C@H](C)C(N)=O)c1)-c1c(c(C(=O)N3CCOCC3(C)C)nn1-c1cc(Cl)cc(Cl)c1)CO2 [Compound 86, (4R,7R,10R,13R,16R)-4-(((R)-1-amino-1-oxopropan-2-yl)carbamoyl)-10-(4-(4((3-(1-(3,5-dichlorophenyl)-3-(3,3-dimethylmorpholine-4-carbonyl)-7-methoxy-1,4-dihydrochromeno|4,3-clpyrazol-8-yl)phenyl)amino)-4-oxobutanamido)butyl)-7,13-dimethyl-6,9,12,15-tetraoxo-16-((R)-2-(2-(4,7,10-tris(carboxymethyl)-1,4,7,10-tetraazacyclododecan-1-yl)acetamido)propanamido)-5,8,11,14-tetraazanonadecanedioic acid] ({DOTA}-[dA][dE][dA][dK]([Suc-X1])[dA][dE][dA]-NH2)
